Experimental data reported in patent US12433871B2, “Effects of age-dependent changes in cell size on endothelial cell growth” (The Medical College of Wisconsin, Inc., priority 2019, dated 2025).

What was measured:
[1] = test system: aged human adipose ECs; test: Mouse subcutaneous fibrin gel implantation (blood vessel formation and dextran leakage); assay type: in vivo, NSG mouse
Protocol: (§1) In an in vitro cell culture study human adipose endothelial cells were treated with ML141 (500 nM with DMSO). In an in vivo mouse study hydrogel mixed with young or aged human endothelial cells or in combination with ML141 (500 nM with DMSO) was implanted on the back of the immunocompromised mouse. One week later, the gel was removed and analyzed blood vessel formation using immunohistochemical analysis.
Mouse subcutaneous fibrin gel implantation—The in vivo animal study was carried out in strict accordance with the recommendations in the Guide for the Care and Use of Laboratory Animals of the National Institutes of Health. The protocol was reviewed and approved by the Animal Care and Use Committee of Medical College of Wisconsin. NOD scid gamma (NSG) mice (8 week old; Jackson Laboratory) and C57BL6 mice (Jackson Laboratory and NIA/NIH rodent colonies) were used for the study. Fibrin gel was fabricated as described. […] Vascular network formation of GFP-labeled human adipose ECs was evaluated by measuring the area and length of GFP-labeled blood vessels from five different areas of the gel. The vascular permeability was measured using low MW fluorescently labeled dextran (MW 4000, Sigma) leakage. […]

[2] = test system: ECs isolated from >50 y.o. human adipose tissues; test: EC senescence (p16INK4A staining) in aged ECs cultured on FN-coated microcontact-printed islands; assay type: cell-based; conditions: aged ECs on the large island (2500 μm2), ML141 500 nM, compared to those without ML141 treatment
Protocol: as §1
EC proliferation was analyzed by a BrdU incorporation assay or a Click-iT® Plus EdU Proliferation Assay. Mouse lung and human adipose ECs were plated in EBM2 with 2% serum, pulsed with 5 μM BrdU for 16 h, immunostained and imaged using a confocal Leica SP5 microscope. Cellular senescence was characterized using a SA-β galactosidase assay kit (cell signaling) or anti-P16^INK4A staining. The specificity of P16^INK4A staining was confirmed by 2nd Ab alone staining (Supplementary FIG. 1D). The microscopic images were analyzed on at least five images using imageJ software (NIH) and the same contrast and brightness were used to compare the images.
(§2) Microcontact printing system—Stamps were created using soft lithography as described previously. Polydimethylsiloxane (PDMS) stamps were made by casting the polymer against master molds made by standard photolithography using the negative photoresist SU-8 (MicroChem). […]

[3] = test system: YAP1; test: Immunoblot of YAP1S127 phosphorylation in aged human adipose ECs treated with ML141; assay type: cell-based; conditions: ML141 500 nM, compared to those without ML141 treatment
From the text: (§3) FIGS. 3A-3F show CDC42-YAP1 mediates cell size-dependent changes in EC senescence in aged ECs. (FIG. 3A) Representative immunoblots showing YAP1, YAP1S127 phosphorylation, and β-actin protein levels in ECs isolated from >50 y.o. human adipose tissues treated with retrovirus overexpressing full-length YAP1 or YAP1S127A (left). Graph showing the quantification of immunoblots (right, n=3, *, p<0.05). (FIG. 3B) IF micrographs showing P16^INK4A expression and DAPI in ECs isolated from >50 y.o. human adipose tissues treated with retrovirus overexpressing full-length YAP1 or YAP1S127A, cultured on FN-coated island of different sizes. Scale bar, 10 (FIG. 3C) Graph showing quantification of P16^INK4A integrated density (n=7, mean±s.e.m., *, p<0.05). […] Graph showing quantification of GTP-CDC42 integrated density (n=7, mean±s.e.m., *, p<0.05). […] Graph showing the quantification of immunoblots (bottom, n=3, *, p<0.05). […] Scale bar, Graphs showing quantification of P16^INK4A integrated density (bottom left) and nuclear YAP1 (bottom right) (n=7, mean±s.e.m., *, p<0.05).
(§4) In an in vitro cell culture study human adipose endothelial cells were treated with ML141 (500 nM with DMSO). […] One week later, the gel was removed and analyzed blood vessel formation using immunohistochemical analysis.

[4] = test system: YAP1; test: YAP1 nuclear localization in aged ECs cultured on FN-coated microcontact-printed islands; assay type: cell-based, human; conditions: aged ECs on the large island (2500 μm2), ML141 500 nM, compared to those without ML141 treatment
Protocol: To directly analyze whether EC size controls YAP1 activity, we prepared microcontact-printed substrates consisting of square FN-coated islands (600-2500 μm2) surrounded by non-adhesive regions, in which we directly stamped FN (50 μg/ml) onto activated polydimethylsiloxane-coated cover slips and blocked unstamped areas with Pluronic F-127 [49, 50]. […] In contrast, when we cultured 24M old mouse lung ECs on the large islands, YAP1 was excluded from the nucleus, while YAP1 was in the nucleus on the medium size islands (FIGS. 6D and 6E).
as §1
as §2, with “(MicroChem). Substrates for stamping were fabricated by spin-coating a thin layer of PDMS (Sylgard-184, Dow Corning) onto glass coverslips.” for “(MicroChem).”

[5] = target: T1, CDC42 (Homo sapiens, UniProt P60953); test: GTP-CDC42 levels by immunofluorescence in aged human adipose ECs treated with ML141; assay type: cell-based; conditions: ECs from >50 y.o. human adipose tissues, ML141 500 nM
T1 construct: endogenous in cells; host or cells: primary endothelial cells isolated from >50 y.o. human adipose tissue
From the text: as §3, §4

T1 sequence (P60953 whole entry): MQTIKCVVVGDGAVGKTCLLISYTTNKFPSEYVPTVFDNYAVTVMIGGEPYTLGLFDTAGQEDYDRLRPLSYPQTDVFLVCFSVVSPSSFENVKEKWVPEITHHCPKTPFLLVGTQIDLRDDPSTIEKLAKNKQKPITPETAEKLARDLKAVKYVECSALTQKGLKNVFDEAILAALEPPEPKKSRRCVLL

## COc1ccc(C2CC(c3ccccc3)=NN2c2ccc(S(N)(=O)=O)cc2)cc1 (stereo not drawn) [ML141]
[1]; fibrin gel with aged human adipose ECs, ML141 500 nM in gel, subcutaneous in NSG mouse, 7 days
  aged EC-derived blood vessel length, times longer: 2.5 times
[1]; gel with aged ECs, ML141 500 nM, dextran by systemic injection
  leakage of fluorescently labeled dextran in the gel: attenuated the leakage of dextran
[2]
  intensity of senescence marker p16INK4A, lower: 45%
[3]
  decrease in YAP1S127 phosphorylation: 72%
[4]
  levels of nuclear YAP1, times higher: 1.2 times
[5]
  CDC42 activity (GTP-CDC42 integrated density): Inhibition of CDC42 activity
